pEC50: −log10 of the molar value. Numbered stars: 1 amine (or outer) side, 2 acyl side, 3 side chain; on linkers, the order of the positions; unused ones are H or OH. Square brackets hold non-standard residues; d marks the D form. Peptide text beside a SMILES is read from it. * marks the point of attachment. C18 diacid = O=C(O)CCCCCCCCCCCCCCCCC(=O)*; γGlu = O=C(O)[C@H](CCC(=O)[*:2])N[*:1]; Cha = N[C@@H](CC1CCCCC1)C(=O)O; NMeL = CN[C@@H](CC(C)C)C(=O)O; Nle = CCCC[C@H](N)C(=O)O; AEEA = NCCOCCOCC(=O)O; βAla = NCCC(=O)O
Tests used:
Experiment in all cases: IP3 assay (inositol trisphosphate, 3H-myoinositol) in transiently transfected COS-7 cells
Assay type in all cases: cell-based
hNK2R = target: T1, hNK2R (Homo sapiens, UniProt P21452); settings: for pEC50 / hNK2R, IP3 Efficacy: COS-7 cells; for pEC50: 0.2% ovalbumin buffer; for hNK2R, IP3 Efficacy: figure legends: percent of 10^-6 M NKA
T1 construct: host or cells: COS-7
T1 sequence (P21452 1-398): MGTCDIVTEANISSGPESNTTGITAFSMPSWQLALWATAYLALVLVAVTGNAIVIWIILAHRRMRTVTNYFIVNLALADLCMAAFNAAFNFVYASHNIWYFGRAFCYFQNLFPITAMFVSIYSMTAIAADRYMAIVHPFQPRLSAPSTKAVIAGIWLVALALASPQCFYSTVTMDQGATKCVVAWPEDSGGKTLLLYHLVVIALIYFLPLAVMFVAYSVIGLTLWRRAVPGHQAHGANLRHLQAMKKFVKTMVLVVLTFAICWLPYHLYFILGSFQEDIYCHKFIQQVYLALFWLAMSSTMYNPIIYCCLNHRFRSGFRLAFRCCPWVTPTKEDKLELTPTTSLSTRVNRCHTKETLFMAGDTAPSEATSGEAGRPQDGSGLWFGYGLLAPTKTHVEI
Description: (§1) Agonist-induced G-protein coupled receptor (GPCR) activation was measured by an Inositol-1,4,5-Trisphosphate [^3H] Radioreceptor Assay (IPs Assay). Assays were carried out using COS-7 cells transiently transfected by calcium phosphate transfection with a vector pcDNA3.1(+) encoding one of the indicated receptors (Genscript). Briefly, DNA mixed with CaCl2 (2 M) and TE-buffer (10 mM Tris-HCl, 1 mM EDTA, pH 7.5) was dropwise added to 2×HBS (50 mM HEPES, 280 mM NaCl, 1.5 mM NaH2PO4, pH 7.2) and incubated for 45 min at room temperature (22±2° C.). The mixture and a final concentration of 100 μM Chloroquine were added to the cells and left to incubate for 5 hours at 37° C. under standard cell culture conditions (10% CO2) before changing medium to fresh medium containing 5 μl/mL Myo-[2-^3H(N)]-inositol (labelling medium).
(§2) The IP3 assay takes advantage of the tachykinin receptors' ability to induce production of the inositol trisphosphate (IP3) second messenger upon agonist (ligand) binding on receptor expressing cells following an initial ^3H-inositol labelling period. In effect this means that production of the second messenger IP3 as a measure of receptor activity can be assessed by counting ^3H-activity.
(§3) Assay solutions used: Wash buffer (HBSS), Assay buffer (HBSS+10 mM LiCl and 0,2% w/v ovalbumin), Lysis buffer (10 mM formic acid), and SPA YSI beads (12.5 mg/ml in H2O). The assay was performed the day after transfection. Briefly, labelling medium was aspirated, and plates were washed ×1 in wash buffer before adding 100 μl assay buffer, pre-incubated for 30 min followed by 120 min incubation with agonist, both at 37° C. After incubation, plates were immediately placed on ice and the incubation medium was aspirated and 40 μl of 10 mM formic acid per well was added. Plates were incubated for at least 30 min on ice. 60 μl (1 mg/well) SPA YSI beads/well was pipetted into a solid white 96 wells plate and 35 μl of the lysis solution was transferred to the plate before covering plates with seal cover and shaking for 10 min. (max speed). Centrifuge plates and leave for 8 hours at room temperature before counting the plates in a MicroBeta plate counter (Perkin Elmer).

hNK1R = target: T2, hNK1R (Homo sapiens, UniProt P25103); settings: COS-7 cells; for pEC50: 0.2% ovalbumin buffer; for hNK1R, IP3 Efficacy: figure legends: percent of 10^-6 M NKA
T2 construct: host or cells: COS-7
Description: as §1, §2, §3

hNK3R = target: T3, hNK3R (Homo sapiens, UniProt P29371); settings: COS-7 cells; for pEC50: 0.2% ovalbumin buffer, read-out: hNK3, IP3 EC50; for hNK3, IP3 Efficacy: figure legends: percent of 10^-6 M NKA
T3 construct: host or cells: COS-7
T3 sequence (P29371 1-465): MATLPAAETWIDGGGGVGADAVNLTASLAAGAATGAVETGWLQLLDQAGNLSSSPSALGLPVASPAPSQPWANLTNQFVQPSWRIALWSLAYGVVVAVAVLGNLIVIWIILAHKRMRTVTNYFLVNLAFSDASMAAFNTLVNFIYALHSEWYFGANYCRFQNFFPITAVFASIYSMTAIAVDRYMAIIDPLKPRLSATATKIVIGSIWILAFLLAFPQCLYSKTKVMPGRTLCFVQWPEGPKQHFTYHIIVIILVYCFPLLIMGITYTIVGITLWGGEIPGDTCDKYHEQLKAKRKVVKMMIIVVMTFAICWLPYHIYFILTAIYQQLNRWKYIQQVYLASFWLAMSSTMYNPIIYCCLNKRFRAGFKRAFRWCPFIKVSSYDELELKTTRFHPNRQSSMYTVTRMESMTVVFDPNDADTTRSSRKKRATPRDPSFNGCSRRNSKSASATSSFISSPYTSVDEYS
Description: as §1, §2, §3

T2 sequence (P25103 whole entry): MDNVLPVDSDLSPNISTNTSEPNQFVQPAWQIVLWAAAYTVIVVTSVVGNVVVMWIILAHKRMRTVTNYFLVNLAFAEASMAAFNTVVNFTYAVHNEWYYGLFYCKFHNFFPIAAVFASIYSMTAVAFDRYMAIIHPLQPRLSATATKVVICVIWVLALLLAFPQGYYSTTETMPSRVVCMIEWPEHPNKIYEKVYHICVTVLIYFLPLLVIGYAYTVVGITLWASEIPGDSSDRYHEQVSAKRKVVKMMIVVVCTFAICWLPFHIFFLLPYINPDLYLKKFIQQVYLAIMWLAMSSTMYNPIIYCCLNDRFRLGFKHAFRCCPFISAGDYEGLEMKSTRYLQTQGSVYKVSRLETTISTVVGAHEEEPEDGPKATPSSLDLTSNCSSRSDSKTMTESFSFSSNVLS

pEC50 (hNK2R) | hNK2R, IP3 Efficacy (hNK2R) [%] | pEC50 (hNK1R) | hNK1R, IP3 Efficacy (hNK1R) [%] | pEC50 (hNK3R) | hNK3, IP3 Efficacy (hNK3R) [%] | hNK2R receptor activation, in words (hNK2R) | SMILES
7.42 | 63 | ~5.82 | 64 | 6.80 | 85 |  | CSCC[C@H](NC(=O)[C@H](CC(C)C)N(C)C(=O)CNC(=O)[C@@H](NC(=O)[C@H](Cc1ccccc1)NC(=O)[C@H](CCCCNC(=O)COCCOCCNC(=O)COCCOCCNC(=O)CC[C@H](NC(=O)CCCCCCCCCCCCCCCCC(=O)O)C(=O)O)NC(=O)[C@H](CC(=O)O)NC(C)=O)C(C)C)C(N)=O [compound 301, **Asp;Lys*;Phe;Val;Gly;NmLeu;Met;NH2]
 |  |  |  |  |  | inactivates the NKA(4-10) analogue | CSCC[C@H](NC(=O)[C@H](CC(C)C)N(C)C(=O)CNC(=O)[C@@H](NC(=O)[C@H](Cc1ccccc1)NC(=O)[C@H](CCCCNC(=O)COCCOCCNC(=O)COCCOCCNC(=O)CC[C@H](NC(=O)CCCCCCCCCCCCCCCCC(=O)O)C(=O)O)NC(=O)[C@H](CC(=O)O)NC(=O)COCCOCCNC(=O)COCCOCCNC(=O)CC[C@H](NC(=O)CCCCCCCCCCCCCCCCC(=O)O)C(=O)O)C(C)C)C(N)=O [compound 302, *Asp;Lys*;Phe;Val;Gly;NmLeu;Met;NH2]
8.70 | 90 | 7.72 | 80 | 7.44 | 65 |  | CCCC[C@H](NC(=O)[C@H](CC(C)C)N(C)C(=O)CNC(=O)[C@@H](NC(=O)[C@H](Cc1ccccc1)NC(=O)[C@H](CCCNC(=N)N)NC(=O)[C@H](CC(=O)O)NC(=O)COCCOCCNC(=O)COCCOCCNC(=O)CC[C@H](NC(=O)CCCCCCCCCCCCCCCCC(=O)O)C(=O)O)C(C)C)C(N)=O [compound 306, *Asp;Arg;Phe;Val;Gly;NmLeu;Nle;NH2] ({C18 diacid-γGlu-AEEA-AEEA}-DRFVG[NMeL][Nle]-NH2)
7.62 | 80 |  | 64 | ~4.92 | 85 |  | CCCC[C@H](NC(=O)[C@H](CC(C)C)N(C)C(=O)CNC(=O)[C@@H](NC(=O)[C@H](Cc1ccccc1)NC(=O)[C@H](CCCCNC(=O)COCCOCCNC(=O)COCCOCCNC(=O)CC[C@H](NC(=O)CCCCCCCCCCCCCCCCC(=O)O)C(=O)O)NC(=O)[C@@H](N)CC(=O)O)C(C)C)C(N)=O [compound 307, Asp;Lys*;Phe;Val;Gly;NmLeu;Nle;NH2]
7.02 | 65 | ~6.79 | 60 | 6.00 | 93 |  | CCCC[C@H](NC(=O)[C@H](CC(C)C)NC(=O)CNC(=O)[C@@H](NC(=O)[C@H](Cc1ccccc1)NC(=O)[C@H](CO)NC(=O)[C@H](CC(=O)O)NC(=O)[C@@H](NC(=O)[C@H](CCCCN)NC(=O)COCCOCCNC(=O)COCCOCCNC(=O)CC[C@H](NC(=O)CCCCCCCCCCCCCCCCC(=O)O)C(=O)O)[C@@H](C)O)C(C)C)C(N)=O [compound 308, *Lys;Thr;Asp;Ser;Phe;Val;Gly;Leu;Nle;NH2]
7.35 | 65 |  | 0 |  | 80 |  | CCCC[C@H](NC(=O)[C@H](CC(C)C)N(C)C(=O)CCNC(=O)[C@@H](NC(=O)[C@H](Cc1ccccc1)NC(=O)[C@H](CO)NC(=O)[C@H](CC(=O)O)NC(=O)[C@@H](NC(=O)[C@H](CCCCN)NC(=O)COCCOCCNC(=O)COCCOCCNC(=O)CC[C@H](NC(=O)CCCCCCCCCCCCCCCCC(=O)O)C(=O)O)[C@@H](C)O)C(C)C)C(N)=O [compound 310, *Lys;Thr;Asp;Ser;Phe;Val;bAla;NmLeu;Nle;NH2] ({C18 diacid-γGlu-AEEA-AEEA}-KTDSFV[βAla][NMeL][Nle]-NH2)
7.60 | 65 | ~6.75 | 44 | 6.29 | 80 |  | CCCC[C@H](NC(=O)[C@H](CC(C)C)N(C)C(=O)CNC(=O)[C@@H](NC(=O)[C@H](Cc1ccccc1)NC(=O)[C@H](CO)NC(=O)[C@H](CC(=O)O)NC(=O)[C@@H](NC(=O)[C@H](CCCCN)NC(=O)COCCOCCNC(=O)COCCOCCNC(=O)CC[C@H](NC(=O)CCCCCCCCCCCCCCCCC(=O)O)C(=O)O)[C@@H](C)O)C(C)C)C(N)=O [compound 312, *Lys;Thr;Asp;Ser;Phe;Val;Gly;NmLeu;Nle;NH2]
7.64 | 70 |  | 20 |  | 0 |  | CC(C)C[C@@H](C(=O)N[C@@H](CC1CCCCC1)C(N)=O)N(C)C(=O)CNC(=O)[C@@H](NC(=O)[C@H](Cc1ccc(O)cc1)NC(=O)[C@H](CCCCN)NC(=O)[C@H](CC(=O)O)NC(=O)COCCOCCNC(=O)COCCOCCNC(=O)CC[C@H](NC(=O)CCCCCCCCCCCCCCCCC(=O)O)C(=O)O)C(C)C [compound 313, *Asp;Lys;Tyr;Val;Gly;NmLeu;cHexAla;NH2] ({C18 diacid-γGlu-AEEA-AEEA}-DKYVG[NMeL][Cha]-NH2)
~5.51 | 45 |  | 0 |  | 0 |  | CCCC[C@H](NC(=O)[C@H](CC(C)C)N(C)C(=O)CNC(=O)[C@H](CCCNC(=N)N)NC(=O)[C@H](Cc1ccc(O)cc1)NC(=O)[C@H](CCCCN)NC(=O)[C@H](CCC(=O)O)NC(=O)COCCOCCNC(=O)COCCOCCNC(=O)CC[C@H](NC(=O)CCCCCCCCCCCCCCCCC(=O)O)C(=O)O)C(N)=O [compound 314, *Glu;Lys;Tyr;Arg;Gly;NmLeu;Nle;NH2] ({C18 diacid-γGlu-AEEA-AEEA}-EKYRG[NMeL][Nle]-NH2)
7.33 | 60 |  | 0 |  | 0 |  | CCCC[C@H](NC(=O)[C@H](CC(C)C)N(C)C(=O)CNC(=O)[C@H](CCCNC(=N)N)NC(=O)[C@H](Cc1ccccc1)NC(=O)[C@H](CCCCN)NC(=O)[C@H](CCC(=O)O)NC(=O)COCCOCCNC(=O)COCCOCCNC(=O)CC[C@H](NC(=O)CCCCCCCCCCCCCCCCC(=O)O)C(=O)O)C(N)=O [compound 315, *Glu;Lys;Phe;Arg;Gly;NmLeu;Nle;NH2] ({C18 diacid-γGlu-AEEA-AEEA}-EKFRG[NMeL][Nle]-NH2)
~6.89 | 53 |  | 0 | ~6.80 | 80 |  | CCCC[C@H](NC(=O)[C@H](CC(C)C)NC(=O)CCNC(=O)[C@@H](NC(=O)[C@H](Cc1ccccc1)NC(=O)[C@H](CO)NC(=O)[C@H](CC(=O)O)NC(=O)[C@@H](NC(=O)[C@H](CCCCN)NC(=O)COCCOCCNC(=O)COCCOCCNC(=O)CC[C@H](NC(=O)CCCCCCCCCCCCCCCCC(=O)O)C(=O)O)[C@@H](C)O)C(C)C)C(N)=O [compound 322, *Lys;Thr;Asp;Ser;Phe;Val;bAla;Leu;Nle;NH2] ({C18 diacid-γGlu-AEEA-AEEA}-KTDSFV[βAla]L[Nle]-NH2)
 | 0 | ~6.77 | 40 |  | 0 | completely destroys NK2R activation | CCCC[C@H](NC(=O)[C@H](CC(C)C)N(C)C(=O)CNC(=O)[C@@H](NC(=O)[C@H](Cc1ccc(I)cc1)NC(=O)[C@H](CCCCN)NC(=O)[C@H](CC(=O)O)NC(=O)COCCOCCNC(=O)COCCOCCNC(=O)CC[C@H](NC(=O)CCCCCCCCCCCCCCCCC(=O)O)C(=O)O)C(C)C)C(N)=O [compound 330, *Asp;Lys;4-I-Phe;Val;Gly;NmLeu;Nle;NH2]
